In assay [1] the target is T1, MTHFD1 recombinant human enzyme (Homo sapiens, UniProt P11586).
T1 sequence (P11586 2-291 limits assumed): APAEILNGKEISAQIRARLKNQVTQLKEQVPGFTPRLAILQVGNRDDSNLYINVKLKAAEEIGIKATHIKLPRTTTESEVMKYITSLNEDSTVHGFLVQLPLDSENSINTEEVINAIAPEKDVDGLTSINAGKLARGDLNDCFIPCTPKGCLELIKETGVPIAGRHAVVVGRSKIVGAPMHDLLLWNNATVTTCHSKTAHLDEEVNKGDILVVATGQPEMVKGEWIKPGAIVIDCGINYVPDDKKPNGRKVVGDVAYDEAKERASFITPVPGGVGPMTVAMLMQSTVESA
In words: MTHFD1 inhibition assay (NAD(P)H-Glo luminescence). The conditions noted are these: MTHFD1 IC50, recombinant human enzyme 200 nM, NADP, band.

Assay [2] has as its target T2, MTHFD2 recombinant human enzyme (Homo sapiens, UniProt P13995).
T2 sequence (P13995 36-350): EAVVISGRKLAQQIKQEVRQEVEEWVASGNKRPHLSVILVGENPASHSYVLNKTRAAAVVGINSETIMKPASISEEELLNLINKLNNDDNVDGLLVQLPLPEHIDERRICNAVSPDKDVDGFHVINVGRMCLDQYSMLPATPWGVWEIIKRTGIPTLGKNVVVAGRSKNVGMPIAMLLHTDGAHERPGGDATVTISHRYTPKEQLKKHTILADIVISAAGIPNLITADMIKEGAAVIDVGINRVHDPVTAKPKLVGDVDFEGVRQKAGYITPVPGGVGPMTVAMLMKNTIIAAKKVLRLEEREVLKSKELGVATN
Briefly: MTHFD2 inhibition assay (NAD(P)H-Glo luminescence). As to conditions: for MTHFD1/MTHFD2 IC50 ratio: selectivity of MTHFD2 inhibition over MTHFD1, band.

For orientation: IC50 means the midpoint of a concentration-inhibition curve. As to `COC[C@H]1CN(c2cc(Cl)c3c4c(c(=O)oc3c2C)CN(C(=O)c2cc(N(C)C)c(C(=O)NS(=O)(=O)N3CCC5(CC5)C3)cc2F)CC4)CCN1C` [Example 274, (R)-N-((5-azaspiro[2.4]heptan-5-yl)sulfonyl)-4-(10-chloro-8-(3-(methoxymethyl)-4-methylpiperazin-1-yl)-7-methyl-5-oxo-1,3,4,5-tetrahydro-2H-chromeno[3,4-c]pyridine-3-carbonyl)-2-(dimethylamino)-5-fluorobenzamide], the IC50 in assay [1] was 100 to 1000 nM; in assay [2], 10 to 100 nM. For the same compound, in assay [2], the “MTHFD1/MTHFD2 IC50 ratio” value was “H (>9.0 to 30)”.

On to `COC[C@H]1CN(c2cc(Cl)c3c4c(c(=O)oc3c2C)CN(C(=O)c2cc(N(C)C)c(C(=O)NS(=O)(=O)N3CCCCC3)cc2F)CC4)CCN1C` [Example 275, (R)-4-(10-chloro-8-(3-(methoxymethyl)-4-methylpiperazin-1-yl)-7-methyl-5-oxo-1,3,4,5-tetrahydro-2H-chromeno[3,4-c]pyridine-3-carbonyl)-2-(dimethylamino)-5-fluoro-N-(piperidin-1-ylsulfonyl)benzamide], for which the half-inhibitory concentration (IC50) in assay [1] lay within 100 to 1000 nM. For the same compound, in assay [2], the 50% inhibitory concentration (IC50) lay within 10 to 100 nM and the “MTHFD1/MTHFD2 IC50 ratio” value was “G (^ 3 to 9.0)”.

Take `COC[C@H]1CN(c2cc(Cl)c3c4c(c(=O)oc3c2C)CN(C(=O)c2cc(N(C)C)c(C(=O)NS(=O)(=O)N(C3CC3)C3CC3)cc2F)CC4)CCN1C` [Example 277, (R)-4-(10-chloro-8-(3-(methoxymethyl)-4-methylpiperazin-1-yl)-7-methyl-5-oxo-1,3,4,5-tetrahydro-2H-chromeno[3,4-c]pyridine-3-carbonyl)-N-(N,N-dicyclopropylsulfamoyl)-2-(dimethylamino)-5-fluorobenzamide]: the half-inhibitory concentration (IC50) in assay [1] is 100 to 1000 nM. In assay [2], the 50% inhibitory concentration (IC50) was 10 to 100 nM and the “MTHFD1/MTHFD2 IC50 ratio” value is “H (>9.0 to 30)”.

As for `COC[C@H]1CN(c2cc(Cl)c3c4c(c(=O)oc3c2C)CN(C(=O)c2cc(N(C)C)c(C(=O)NS(=O)(=O)N3CCC[C@@H]3C(F)(F)F)cc2F)CC4)CCN1C` [Example 278, 4-(10-chloro-8-((R)-3-(methoxymethyl)-4-methylpiperazin-1-yl)-7-methyl-5-oxo-1,3,4,5-tetrahydro-2H-chromeno[3,4-c]pyridine-3-carbonyl)-2-(dimethylamino)-5-fluoro-N-(((R)-2-(trifluoromethyl)pyrrolidin-1-yl)sulfonyl)benzamide], the IC50 in assay [1] was 100 to 1000 nM; in assay [2], 10 to 100 nM. For the same compound, the “MTHFD1/MTHFD2 IC50 ratio” value in assay [2] is listed as “H (>9.0 to 30)”.

With `COC[C@H]1CN(c2cc(Cl)c3c4c(c(=O)oc3c2C)CN(C(=O)c2ccc(C(=O)NS(=O)(=O)N3CC5(CCC5)C3)c(OC)c2)CC4)CCN1C` [Example 279, (R)-N-((2-azaspiro[3.3]heptan-2-yl)sulfonyl)-4-(10-chloro-8-(3-(methoxymethyl)-4-methylpiperazin-1-yl)-7-methyl-5-oxo-1,3,4,5-tetrahydro-2H-chromeno[3,4-c]pyridine-3-carbonyl)-2-methoxybenzamide], the 50% inhibitory concentration (IC50) in assay [1] was 100 to 1000 nM. For the same compound, in assay [2], the IC50 was 10 to 100 nM and the “MTHFD1/MTHFD2 IC50 ratio” value was “H (>9.0 to 30)”.

Turning to `COC[C@H]1CN(c2cc(Cl)c3c4c(c(=O)oc3c2C)CN(C(=O)c2ccc(C(=O)NS(=O)(=O)N3CC5CC5C3)c(OC)c2)CC4)CCN1C` (stereo partly drawn) [Example 280, N-((3-azabicyclo[3.1.0]hexan-3-yl)sulfonyl)-4-(10-chloro-8-((R)-3-(methoxymethyl)-4-methylpiperazin-1-yl)-7-methyl-5-oxo-1,3,4,5-tetrahydro-2H-chromeno[3,4-c]pyridine-3-carbonyl)-2-methoxybenzamide], the concentration for half-maximal inhibition (IC50) in assay [1] was 100 to 1000 nM. In assay [2], the IC50 lay in the range of 10 to 100 nM and the “MTHFD1/MTHFD2 IC50 ratio” value is reported as “H (>9.0 to 30)”.

Turning to `COC[C@H]1CN(c2cc(Cl)c3c4c(c(=O)oc3c2C)CN(C(=O)c2cc(N(C)C)c(C(=O)NS(=O)(=O)N3CC5(COC5)C3)cc2F)CC4)CCN1C` [Example 282, (R)-N-((2-oxa-6-azaspiro[3.3]heptan-6-yl)sulfonyl)-4-(10-chloro-8-(3-(methoxymethyl)-4-methylpiperazin-1-yl)-7-methyl-5-oxo-1,3,4,5-tetrahydro-2H-chromeno[3,4-c]pyridine-3-carbonyl)-2-(dimethylamino)-5-fluorobenzamide], the IC50 in assay [1] was in the range of 100 to 1000 nM. Moreover, in assay [2], the IC50 is 10 to 100 nM and the “MTHFD1/MTHFD2 IC50 ratio” value is “H (>9.0 to 30)”.

`COC[C@H]1CN(c2cc(Cl)c3c4c(c(=O)oc3c2C)CN(C(=O)c2ccc(C(=O)NS(=O)(=O)N3CCC[C@H]3COC)c(OC)c2)CC4)CCN1C` [Example 283, 4-(10-chloro-8-((R)-3-(methoxymethyl)-4-methylpiperazin-1-yl)-7-methyl-5-oxo-1,3,4,5-tetrahydro-2H-chromeno[3,4-c]pyridine-3-carbonyl)-2-methoxy-N-(((S)-2-(methoxymethyl)pyrrolidin-1-yl)sulfonyl)benzamide]: the IC50 in assay [1] lay within 1000 to 5000 nM. In assay [2], the IC50 is 10 to 100 nM and the “MTHFD1/MTHFD2 IC50 ratio” value is “H (>9.0 to 30)”.

With `COC[C@H]1CN(c2cc(Cl)c3c4c(c(=O)oc3c2C)CN(C(=O)c2cc(N(C)C)c(C(=O)NS(=O)(=O)N3CC[C@H](OC)C3)cc2F)CC4)CCN1C` [Example 284, 4-(10-chloro-8-((R)-3-(methoxymethyl)-4-methylpiperazin-1-yl)-7-methyl-5-oxo-1,3,4,5-tetrahydro-2H-chromeno[3,4-c]pyridine-3-carbonyl)-2-(dimethylamino)-5-fluoro-N-(((S)-3-methoxypyrrolidin-1-yl)sulfonyl)benzamide], the half-inhibitory concentration (IC50) in assay [1] lay within 100 to 1000 nM. For the same compound, in assay [2], the half-maximal inhibitory concentration (IC50) is 10 to 100 nM and the “MTHFD1/MTHFD2 IC50 ratio” value is “H (>9.0 to 30)”.

In the case of `COC[C@H]1CN(c2cc(Cl)c3c4c(c(=O)oc3c2C)CN(C(=O)c2cc(N(C)C)c(C(=O)NS(=O)(=O)N3CC[C@@H](OC)C3)cc2F)CC4)CCN1C` [Example 285, 4-(10-chloro-8-((R)-3-(methoxymethyl)-4-methylpiperazin-1-yl)-7-methyl-5-oxo-1,3,4,5-tetrahydro-2H-chromeno[3,4-c]pyridine-3-carbonyl)-2-(dimethylamino)-5-fluoro-N-(((R)-3-methoxypyrrolidin-1-yl)sulfonyl)benzamide], the IC50 lay within 100 to 1000 nM in assay [1] and 10 to 100 nM in assay [2]. Further, the “MTHFD1/MTHFD2 IC50 ratio” value in assay [2] is listed as “H (>9.0 to 30)”.

As for `COC[C@H]1CN(c2cc(C)c3c4c(c(=O)oc3c2C)CN(C(=O)c2cc(N(C)C)c(C(=O)NS(=O)(=O)N3CCC[C@@H](OC)C3)cc2F)CC4)CCN1C` [Example 286, 2-(dimethylamino)-5-fluoro-4-(8-((R)-3-(methoxymethyl)-4-methylpiperazin-1-yl)-7,10-dimethyl-5-oxo-1,3,4,5-tetrahydro-2H-chromeno[3,4-c]pyridine-3-carbonyl)-N-(((R)-3-methoxypiperidin-1-yl)sulfonyl)benzamide], the IC50 in assay [1] lay within 100 to 1000 nM. Moreover, in assay [2], the half-maximal inhibitory concentration (IC50) was in the range of 10 to 100 nM and the “MTHFD1/MTHFD2 IC50 ratio” value is “J (>30)”.

(Values after patent US12662489B2 (Sitryx Therapeutics Limited, priority 2023, dated 2026).)
